Each molecule was assayed against T1, aurora-A (human) (Homo sapiens, UniProt O14965) (assay: Aurora-A (human) kinase assay). Conditions: read-out: Activity (Aurora A activity, IC50 grading).
T1 construct: purchased Upstate, Dundee, UK
T1 sequence (O14965 1-403): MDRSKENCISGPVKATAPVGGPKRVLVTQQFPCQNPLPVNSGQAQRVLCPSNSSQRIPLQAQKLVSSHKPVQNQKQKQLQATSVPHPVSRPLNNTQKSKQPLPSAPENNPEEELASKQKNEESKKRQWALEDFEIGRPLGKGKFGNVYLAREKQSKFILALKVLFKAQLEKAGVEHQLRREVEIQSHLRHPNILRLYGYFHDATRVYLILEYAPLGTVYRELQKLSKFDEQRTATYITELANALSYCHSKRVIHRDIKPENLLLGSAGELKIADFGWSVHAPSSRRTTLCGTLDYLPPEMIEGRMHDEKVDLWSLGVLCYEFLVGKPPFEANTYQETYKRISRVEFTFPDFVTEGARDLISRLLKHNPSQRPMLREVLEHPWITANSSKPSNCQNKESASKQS
Assay type: biochemical
Experimental: This was achieved by measurement of incorporation of radioactive phosphate from ATP into Kemptide substrate (LRRASLG), upon phosphorylation by commercially obtained aurora-A (human, Upstate; Dundee, UK). Assays were performed using 96-well plates and appropriate assay buffers (20 mM Tris, 25 mM β-glycerophosphate, 5 mM EGTA, 1 mM DTT, 1 mM sodium vanadate, pH 7.5), into which were added 2-5 ng of active enzyme with 500 μM substrate (Kemptide). The reactions were initiated by addition of MATP mix (15 mM MgCl2+100 μM ATP with 15-25 kBq per well of [γ-^32P]-ATP) and mixtures incubated for 30 min at 30° C. Reactions were stopped by addition of an equal volume of 75 mM aq orthophosphoric acid, followed by filtration through p81 filterplates (Whatman Polyfiltronics, Kent, UK). After washing 4 times with 75 mM aq orthophosphoric acid, plates were dried, scintillant added and incorporated radioactivity measured in a scintillation counter (TopCount, Packard Instruments, Pangbourne, Berks, UK). Compounds for kinase assay were made up as 10 mM stocks in DMSO and diluted into 10% DMSO in assay buffer. Data was analysed using curve-fitting software (XLfit version 4.0.2, IDBS, Guildford, Surrey, UK) to determine IC50 values (concentration of test compound which inhibits kinase activity by 50%).

SMILES | IC50 [nM]
Cc1c(-c2ccnc(Nc3ccc(-c4csnn4)cc3)n2)c(C)n2c1C(=O)NCC2 [Example I-60, 6,8-Dimethyl-7-[2-(4-[1,2,3]thiadiazol-4-yl-phenylamino)-pyrimidin-4-yl]-3,4-dihydro-2H-pyrrolo[1,2-a]pyrazin-1-one] | < 100
Cc1c(-c2ccnc(Nc3ccc(OC(F)(F)F)cc3)n2)c(C)n2c1C(=O)NCC2 [Example I-61, 6,8-Dimethyl-7-[2-(4-trifluoromethoxy-phenylamino)pyrimidin-4-yl]-3,4-dihydro-2H-pyrrolo[1,2-a]pyrazin-1-one] | < 1000
Cc1c(-c2ccnc(Nc3ccc4c(c3)OCCCO4)n2)c(C)n2c1C(=O)NCC2 [Example I-62, 7-[2-(3,4-Dihydro-2H-benzo[b][1,4]dioxepin-7-ylamino)-pyrimidin-4-yl]-6,8-dimethyl-3,4-dihydro-2H-pyrrolo[1,2-a]pyrazin-1-one] | < 100
Cc1c(-c2ccnc(Nc3ccc4c(c3)CS(=O)(=O)C4)n2)c(C)n2c1C(=O)NCC2 [Example I-63, 7-[2-(2,2-Dioxo-2,3-dihydro-1H-2-benzo[c]thiophen-5-ylamino)-pyrimidin-4-yl]-6,8-dimethyl-3,4-dihydro-2H-pyrrolo[1,2-a]pyrazin-1-one] | < 100
Cc1c(-c2ccnc(Nc3ccc(F)c(Cl)c3)n2)c(C)n2c1C(=O)NCC2 [Example I-64, 7-[2-(3-Chloro-4-fluoro-phenylamino)-pyrimidin-4-yl]-6,8-dimethyl-3,4-dihydro-2H-pyrrolo[1,2-a]pyrazin-1-one] | < 1000
Cc1c(-c2ccnc(Nc3ccccc3F)n2)c(C)n2c1C(=O)NCC2 [Example I-65, 7-[2-(2-Fluoro-phenylamino)-pyrimidin-4-yl]-6,8-dimethyl-3,4-dihydro-2H-pyrrolo[1,2-a]pyrazin-1-one] | < 1000
Cc1c(-c2ccnc(Nc3ccc(F)cc3F)n2)c(C)n2c1C(=O)NCC2 [Example I-66, 7-[2-(2,4-Difluoro-phenylamino)-pyrimidin-4-yl]-6,8-dimethyl-3,4-dihydro-2H-pyrrolo[1,2-a]pyrazin-1-one] | < 10000
COc1ccc(Nc2nccc(-c3c(C)c4n(c3C)CCNC4=O)n2)cc1Cl [Example I-67, 7-[2-(3-Chloro-4-methoxy-phenylamino)-pyrimidin-4-yl]-6,8-dimethyl-3,4-dihydro-2H-pyrrolo[1,2-a]pyrazin-1-one] | < 100
Cc1c(-c2ccnc(Nc3ccc(C(F)(F)F)cc3)n2)c(C)n2c1C(=O)NCC2 [Example I-68, 6,8-Dimethyl-7-[2-(4-trifluoromethyl-phenylamino)-pyrimidin-4-yl]-3,4-dihydro-2H-pyrrolo[1,2-a]pyrazin-1-one] | < 10000
Cc1c(-c2ccnc(Nc3cccc(Cl)c3)n2)c(C)n2c1C(=O)NCC2 [Example I-69, 7-[2-(3-Chloro-phenylamino)-pyrimidin-4-yl]-6,8-dimethyl-3,4-dihydro-2H-pyrrolo[1,2-a]pyrazin-1-one] | < 1000
Cc1c(-c2ccnc(Nc3ccc(CC(=O)O)cc3)n2)c(C)n2c1C(=O)NCC2 [Example I-70, {4-[4-(6,8-dimethyl-1-oxo-1,2,3,4-tetrahydro-pyrrolo[1,2-a]pyrazin-7-yl)-pyrimidin-2-ylamino]-phenyl}-acetic acid] | < 100

The remaining lines, values ahead:

IC50 [nM] | SMILES
< 1000 | Cc1nc(-c2ccc(Nc3nccc(-c4c(C)c5n(c4C)CCNC5=O)n3)cc2)cs1 [Example I-71, 6,8-Dimethyl-7-{2-[4-(2-methyl-thiazol-4-yl)-phenylamino]-pyrimidin-4-yl}-3,4-dihydro-2H-pyrrolo[1,2-a]pyrazin-1-one]
< 1000 | Cc1c(-c2ccnc(Nc3ccc(-n4cccn4)cc3)n2)c(C)n2c1C(=O)NCC2 [Example I-72, 6,8-Dimethyl-7-[2-(4-pyrazol-1-yl-phenylamino)-pyrimidin-4-yl]-3,4-dihydro-2H-pyrrolo[1,2-a]pyrazin-1-one]
< 1000 | Cc1c(-c2ccnc(Nc3ccc(-n4cncn4)cc3)n2)c(C)n2c1C(=O)NCC2 [Example I-73, 6,8-Dimethyl-7-[2-(4-[1,2,4]triazol-1-yl-phenylamino)-pyrimidin-4-yl]-3,4-dihydro-2H-pyrrolo[1,2-a]pyrazin-1-one]
< 1000 | Cc1c(-c2ccnc(Nc3ccc(-n4cccc4)cc3)n2)c(C)n2c1C(=O)NCC2 [Example I-74, 6,8-Dimethyl-7-[2-(4-pyrrol-1-yl-phenylamino)-pyrimidin-4-yl]-3,4-dihydro-2H-pyrrolo[1,2-a]pyrazin-1-one]
< 100 | Cc1c(-c2ccnc(Nc3ccc(-c4cn5c(n4)SCC5)cc3)n2)c(C)n2c1C(=O)NCC2 [Example I-75, 7-{2-[4-(2,3-Dihydro-imidazo[2,1-b]thiazol-6-yl)-phenylamino]-pyrimidin-4-yl}-6,8-dimethyl-3,4-dihydro-2H-pyrrolo[1,2-a]pyrazin-1-one]
< 1000 | CNc1ccc(Nc2nccc(-c3c(C)c4n(c3C)CCNC4=O)n2)cc1OC [Example I-76, 7-[2-(3-Methoxy-4-methylamino-phenylamino)-pyrimidin-4-yl]-6,8-dimethyl-3,4-dihydro-2H-pyrrolo[1,2-a]pyrazin-1-one]
< 1000 | Cc1c(-c2ccnc(Nc3ccc(C#N)cc3)n2)c(C)n2c1C(=O)NCC2 [Example I-77, 4-[4-(6,8-Dimethyl-1-oxo-1,2,3,4-tetrahydro-pyrrolo[1,2-a]pyrazin-7-yl)-pyrimidin-2-ylamino]-benzonitrile]
< 1000 | Cc1c(-c2ccnc(Nc3ccc(-c4cccnc4)cc3)n2)c(C)n2c1C(=O)NCC2 [Example I-78, 6,8-Dimethyl-7-[2-(4-pyridin-3-yl-phenylamino)-pyrimidin-4-yl]-3,4-dihydro-2H-pyrrolo[1,2-a]pyrazin-1-one]
< 1000 | Cc1c(-c2ccnc(Nc3ccc(-c4nncn4C)cc3)n2)c(C)n2c1C(=O)NCC2 [Example I-79, 6,8-Dimethyl-7-{2-[4-(4-methyl-4H-[1,2,4]triazol-3-yl)-phenylamino]-pyrimidin-4-yl}-3,4-dihydro-2H-pyrrolo[1,2-a]pyrazin-1-one]
< 1000 | Cc1cc(C)n(-c2ccc(Nc3nccc(-c4c(C)c5n(c4C)CCNC5=O)n3)cc2)n1 [Example I-80, 7-{2-[4-(3,5-Dimethyl-pyrazol-1-yl)-phenylamino]-pyrimidin-4-yl}-6,8-dimethyl-3,4-dihydro-2H-pyrrolo[1,2-a]pyrazin-1-one]
< 1000 | CCOC(=O)c1cnn(-c2ccc(Nc3nccc(-c4c(C)c5n(c4C)CCNC5=O)n3)cc2)c1C [Example I-81, 1-{4-[4-(6,8-Dimethyl-1-oxo-1,2,3,4-tetrahydro-pyrrolo[1,2-a]pyrazin-7-yl)-pyrimidin-2-ylamino]-phenyl}-5-methyl-1H-pyrazole-4-carboxylic acid ethyl ester]
< 100 | Cc1c(-c2ccnc(Nc3ccc(-c4ccno4)cc3)n2)c(C)n2c1C(=O)NCC2 [Example I-82, 7-[2-(4-Isoxazol-5-yl-phenylamino)-pyrimidin-4-yl]-6,8-dimethyl-3,4-dihydro-2H-pyrrolo[1,2-a]pyrazin-1-one]
< 1000 | Cc1c(-c2ccnc(Nc3ccc(-c4csc(CC(N)=O)n4)cc3)n2)c(C)n2c1C(=O)NCC2 [Example I-83, 2-(4-{4-[4-(6,8-Dimethyl-1-oxo-1,2,3,4-tetrahydro-pyrrolo[1,2-a]pyrazin-7-yl)-pyrimidin-2-ylamino]-phenyl}-thiazol-2-yl)-acetamide]
< 1000 | Cc1c(-c2ccnc(Nc3ccc(-c4csc(CC#N)n4)cc3)n2)c(C)n2c1C(=O)NCC2 [Example I-84]
